From article PMC9476189 (ACS Omega, 2022)

Columns and labels:
α-glucosidase = α-glucosidase (Saccharomyces cerevisiae, UniProt P53341); assay: α-Glucosidase assay; assay type: biochemical; conditions: for α-glucosidase inhibition, inhibition (%) at 0.5 mM / IC50: mean ± SEM, triplicate; for IC50: read-out: α-glucosidase inhibition, IC50
LOX = target: T1, LOX (Glycine max, UniProt P08170); assay: Lipoxygenase assay; assay type: biochemical; conditions: mean ± SEM, triplicate; for IC50: read-out: LOX inhibition, IC50
T1 sequence (P08170 1-839): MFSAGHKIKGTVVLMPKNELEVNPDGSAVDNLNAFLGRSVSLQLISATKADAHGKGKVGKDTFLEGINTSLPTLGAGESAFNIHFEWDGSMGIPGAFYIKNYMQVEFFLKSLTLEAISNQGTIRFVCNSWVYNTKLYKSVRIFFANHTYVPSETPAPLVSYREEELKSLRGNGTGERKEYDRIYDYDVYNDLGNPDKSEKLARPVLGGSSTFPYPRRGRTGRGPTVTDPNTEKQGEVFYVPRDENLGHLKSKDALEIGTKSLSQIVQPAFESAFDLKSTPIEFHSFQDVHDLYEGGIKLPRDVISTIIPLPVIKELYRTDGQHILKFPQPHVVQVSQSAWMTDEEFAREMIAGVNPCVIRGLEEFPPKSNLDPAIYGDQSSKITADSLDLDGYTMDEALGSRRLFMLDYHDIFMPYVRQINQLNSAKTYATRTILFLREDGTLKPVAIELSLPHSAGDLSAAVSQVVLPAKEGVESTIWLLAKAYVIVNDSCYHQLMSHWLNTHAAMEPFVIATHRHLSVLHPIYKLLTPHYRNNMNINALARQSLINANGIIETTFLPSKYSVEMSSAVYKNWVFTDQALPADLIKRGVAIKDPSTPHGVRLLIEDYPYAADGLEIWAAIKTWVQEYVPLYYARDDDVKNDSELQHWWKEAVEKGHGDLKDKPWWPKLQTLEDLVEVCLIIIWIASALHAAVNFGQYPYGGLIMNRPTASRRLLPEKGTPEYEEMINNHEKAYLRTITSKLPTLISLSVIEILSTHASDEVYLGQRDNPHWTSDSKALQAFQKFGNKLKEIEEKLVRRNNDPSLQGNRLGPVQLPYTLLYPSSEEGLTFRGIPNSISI

AChE = AChE (Homo sapiens, UniProt P22303); conditions: for AChE inhibition, inhibition (%) at 0.5 mM / IC50: mean ± SEM, triplicate; for IC50: read-out: AChE inhibition, IC50
urease = urease (Canavalia ensiformis, UniProt P07374); conditions: mean ± SEM, triplicate; for IC50: read-out: urease inhibition, IC50
BChE = BChE (Homo sapiens, UniProt P06276); conditions: mean ± SEM, triplicate; for IC50: read-out: BChE inhibition, IC50
Chain of BChE (P06276 29-602, species assumed): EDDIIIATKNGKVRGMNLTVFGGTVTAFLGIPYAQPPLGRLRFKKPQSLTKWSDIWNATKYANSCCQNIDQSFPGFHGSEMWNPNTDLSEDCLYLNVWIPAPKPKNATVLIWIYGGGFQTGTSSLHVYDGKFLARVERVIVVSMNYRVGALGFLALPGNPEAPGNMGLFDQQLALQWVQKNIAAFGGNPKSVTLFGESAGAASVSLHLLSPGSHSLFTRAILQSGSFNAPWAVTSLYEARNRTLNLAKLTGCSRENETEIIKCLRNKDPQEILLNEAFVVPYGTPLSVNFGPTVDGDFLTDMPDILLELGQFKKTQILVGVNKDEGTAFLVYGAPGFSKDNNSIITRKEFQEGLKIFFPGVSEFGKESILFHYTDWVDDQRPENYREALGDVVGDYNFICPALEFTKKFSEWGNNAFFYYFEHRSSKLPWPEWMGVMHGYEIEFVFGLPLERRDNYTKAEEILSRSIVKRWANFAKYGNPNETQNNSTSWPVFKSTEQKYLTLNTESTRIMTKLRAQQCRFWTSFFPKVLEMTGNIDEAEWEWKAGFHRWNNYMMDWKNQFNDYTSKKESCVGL

Chain of AChE (P22303 32-614): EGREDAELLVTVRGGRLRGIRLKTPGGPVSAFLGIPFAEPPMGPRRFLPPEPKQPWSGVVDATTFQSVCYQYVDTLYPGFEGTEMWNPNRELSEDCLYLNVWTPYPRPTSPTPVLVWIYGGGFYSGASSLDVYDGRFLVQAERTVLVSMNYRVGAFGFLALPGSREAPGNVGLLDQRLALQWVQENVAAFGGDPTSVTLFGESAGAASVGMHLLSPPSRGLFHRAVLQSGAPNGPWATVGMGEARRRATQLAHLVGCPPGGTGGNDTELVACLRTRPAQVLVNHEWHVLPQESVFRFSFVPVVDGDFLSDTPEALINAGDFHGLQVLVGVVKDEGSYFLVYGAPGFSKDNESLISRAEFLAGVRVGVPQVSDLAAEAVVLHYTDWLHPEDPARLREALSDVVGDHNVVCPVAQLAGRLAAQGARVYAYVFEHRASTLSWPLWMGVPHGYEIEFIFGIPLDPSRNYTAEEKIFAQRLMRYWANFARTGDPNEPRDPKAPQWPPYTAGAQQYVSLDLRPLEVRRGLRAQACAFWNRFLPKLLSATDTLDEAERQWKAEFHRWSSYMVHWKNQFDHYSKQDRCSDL
Chain of α-glucosidase (P53341 whole entry): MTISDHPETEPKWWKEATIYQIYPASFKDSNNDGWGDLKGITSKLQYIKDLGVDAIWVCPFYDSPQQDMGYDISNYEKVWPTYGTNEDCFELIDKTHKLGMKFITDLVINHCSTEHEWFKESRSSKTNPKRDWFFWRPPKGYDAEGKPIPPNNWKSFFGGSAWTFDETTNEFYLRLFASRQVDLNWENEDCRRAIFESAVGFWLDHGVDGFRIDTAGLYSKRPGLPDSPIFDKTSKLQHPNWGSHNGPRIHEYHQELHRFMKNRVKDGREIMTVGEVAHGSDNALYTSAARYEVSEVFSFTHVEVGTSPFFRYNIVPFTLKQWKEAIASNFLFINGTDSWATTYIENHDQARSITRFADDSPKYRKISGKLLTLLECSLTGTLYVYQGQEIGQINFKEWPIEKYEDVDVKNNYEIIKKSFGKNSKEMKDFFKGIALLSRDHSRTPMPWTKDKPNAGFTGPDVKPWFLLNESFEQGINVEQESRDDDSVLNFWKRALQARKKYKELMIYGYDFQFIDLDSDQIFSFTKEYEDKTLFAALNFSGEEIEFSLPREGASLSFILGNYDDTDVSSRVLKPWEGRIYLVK
Chain of urease (P07374 whole entry, looked up): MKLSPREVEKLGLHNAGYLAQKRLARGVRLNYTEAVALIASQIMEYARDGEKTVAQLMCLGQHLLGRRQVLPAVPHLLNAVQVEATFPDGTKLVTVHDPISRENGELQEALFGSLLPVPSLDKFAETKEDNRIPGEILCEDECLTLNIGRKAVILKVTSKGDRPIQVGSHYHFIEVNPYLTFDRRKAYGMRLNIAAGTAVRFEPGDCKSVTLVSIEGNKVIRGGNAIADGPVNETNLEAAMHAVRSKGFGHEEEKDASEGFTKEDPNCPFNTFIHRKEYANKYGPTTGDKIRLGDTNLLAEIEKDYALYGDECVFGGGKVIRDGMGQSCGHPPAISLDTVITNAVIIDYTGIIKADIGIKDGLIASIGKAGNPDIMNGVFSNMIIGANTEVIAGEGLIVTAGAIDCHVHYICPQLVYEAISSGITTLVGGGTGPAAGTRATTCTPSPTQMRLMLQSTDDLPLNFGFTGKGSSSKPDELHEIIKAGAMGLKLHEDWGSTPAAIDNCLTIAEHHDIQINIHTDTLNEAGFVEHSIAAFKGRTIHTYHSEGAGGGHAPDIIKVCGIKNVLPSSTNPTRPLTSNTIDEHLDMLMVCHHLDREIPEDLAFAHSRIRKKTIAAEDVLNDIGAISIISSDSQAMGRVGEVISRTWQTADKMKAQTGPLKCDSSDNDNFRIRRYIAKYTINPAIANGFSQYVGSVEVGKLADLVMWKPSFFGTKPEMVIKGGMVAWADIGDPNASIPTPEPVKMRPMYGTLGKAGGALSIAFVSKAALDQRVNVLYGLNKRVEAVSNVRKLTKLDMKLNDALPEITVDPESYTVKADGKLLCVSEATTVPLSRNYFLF

Row | Compound | α-glucosidase inhibition, inhibition (%) at 0.5 mM (α-glucosidase) | IC50 (α-glucosidase) | LOX inhibition, inhibition (%) at 0.25 mM (LOX) | AChE inhibition, inhibition (%) at 0.5 mM (AChE) | IC50 (AChE) | urease inhibition, inhibition (%) at 0.25 mM (urease) | BChE inhibition, inhibition (%) at 0.5 mM (BChE) | activity against AChE enzyme (in words) (AChE) | IC50 (BChE) | IC50 (urease) | activity against α-glucosidase enzyme (in words) (α-glucosidase) | IC50 (LOX)
1 | Cc1ccc(S(=O)(=O)N2CCC(c3nnc(SCC(=O)NC4CCCCC4)n3C)CC2)cc1 [Compound 12a, 1-(4-toluenesulfonyl)-4-[3-(N-cyclohexyl-2-ethanamoylthio)-4-methyl-4H-1,2,4-triazol-5-yl] piperidine] | 87.25 ± 1.65% | 135 ± 1.39 µM | 39.47 ± 0.82% | 52.37 ± 0.78% | 476.3 ± 0.57 µM | 25.34 ± 1.42% | 21.93 ± 0.62% | – | – | – | – | –
2 | Cc1ccc(S(=O)(=O)N2CCC(c3nnc(SCC(=O)Nc4ccccc4)n3C)CC2)cc1 [Compound 12b, 1-(4-toluenesulfonyl)-4-[3-(N-phenyl-2-ethanamoylthio)-4-methyl-4H-1,2,4-triazol-5-yl] piperidine] | 76.23 ± 1.58% | 264.3 ± 1.24 µM | 35.25 ± 0.42% | 89.15 ± 0.68% | 85.46 ± 0.45 µM | 31.23 ± 1.42% | 63.42 ± 0.75% | excellent activity | 279.4 ± 0.59 µM | – | – | –
3 | Cc1ccc(S(=O)(=O)N2CCC(c3nnc(SCC(=O)Nc4ccccc4C)n3C)CC2)cc1 [Compound 12c, 1-(4-toluenesulfonyl)-4-{3-[N-(2-methylphenyl)-2-ethanamoylthio]-4-methyl-4H-1,2,4-triazol-5-yl} piperidine] | 72.45 ± 1.75% | 327.8 ± 1.57 µM | 36.47 ± 0.76% | 82.36 ± 0.67% | 134.6 ± 0.53 µM | 75.45 ± 1.72% | 37.83 ± 0.42% | – | – | 163.8 ± 1.45 µM | – | –
4 | Cc1ccc(S(=O)(=O)N2CCC(c3nnc(SCC(=O)Nc4cccc(C)c4)n3C)CC2)cc1 [Compound 12d, 1-(4-Toluenesulfonyl)-4-{3-[N-(3-methylphenyl)-2-ethanamoylthio]-4-methyl-4H-1,2,4-triazol-5-yl}{Kumari, 2021 #63} piperidine] | 91.52 ± 1.43% | 36.7 ± 1.24 µM | 68.34 ± 0.82% | 98.78 ± 0.78% | 0.73 ± 0.54 µM | 98.22 ± 1.65% | 95.29 ± 0.74% | excellent activity | – | 19.4 ± 1.28 µM | excellent activity | 32.6 ± 0.42 µM
5 | Cc1ccc(NC(=O)CSc2nnc(C3CCN(S(=O)(=O)c4ccc(C)cc4)CC3)n2C)cc1 [Compound 12e, 1-(4-toluenesulfonyl)-4-{3-[N-(4-methylphenyl)-2-ethanamoylthio]-4-methyl-4H-1,2,4-triazol-5-yl} piperidine] | 72.75 ± 1.58% | 314.6 ± 1.24 µM | 48.36 ± 0.43% | 87.43 ± 0.77% | 97.86 ± 0.65 µM | 39.26 ± 1.43% | 96.47 ± 0.76% | excellent activity | 0.053 µM | – | – | –
6 | CCc1ccccc1NC(=O)CSc1nnc(C2CCN(S(=O)(=O)c3ccc(C)cc3)CC2)n1C [Compound 12f, 1-(4-toluenesulfonyl)-4-{3-[N-(2-ethylphenyl)-2-ethanamoylthio]-4-methyl-4H-1,2,4-triazol-5-yl} piperidine] | 74.95 ± 1.74% | 275.8 ± 1.37 µM | 62.38 ± 0.75% | 39.62 ± 0.55% | – | 36.35 ± 1.78% | 39.78 ± 0.57% | – | – | – | – | 96.32 ± 0.37 µM
7 | COc1ccccc1NC(=O)CSc1nnc(C2CCN(S(=O)(=O)c3ccc(C)cc3)CC2)n1C [Compound 12g, 1-(4-toluenesulfonyl)-4-{3-[N-(2-methoxyphenyl)-2-ethanamoylthio]-4-methyl-4H-1,2,4-triazol-5-yl} piperidine] | 71.45 ± 1.73% | 267.4 ± 1.52 µM | 41.55 ± 0.51% | 79.24 ± 0.89% | 149.8 ± 0.67 µM | 42.87 ± 1.51% | 24.72 ± 0.56% | – | – | – | – | –
8 | CCOc1ccc(NC(=O)CSc2nnc(C3CCN(S(=O)(=O)c4ccc(C)cc4)CC3)n2C)cc1 [Compound 12h, 1-(4-toluenesulfonyl)-4-{3-[N-(4-ethoxyphenyl)-2-ethanamoylthio]-4-methyl-4H-1,2,4-triazol-5-yl} piperidine] | 73.12 ± 1.58% | 286.6 ± 1.25 µM | 63.53 ± 0.52% | 37.41 ± 0.62% | – | 42.63 ± 1.52% | 16.51 ± 0.35% | – | – | – | – | 92.45 ± 0.26 µM
9 | Cc1ccc(S(=O)(=O)N2CCC(c3nnc(SCC(=O)Nc4cccc(C)c4C)n3C)CC2)cc1 [Compound 12i, 1-(4-toluenesulfonyl)-4-{3-[N-(2,3-dimethylphenyl)-2-ethanamoylthio]-4-methyl-4H-1,2,4-triazol-5-yl} piperidine] | 31.53 ± 1.37% | – | 24.12 ± 0.59% | 82.51 ± 0.85% | 117.4 ± 0.64 µM | 75.82 ± 1.79% | 36.47 ± 0.75% | – | – | 143 ± 1.52 µM | – | –
10 | Cc1ccc(S(=O)(=O)N2CCC(c3nnc(SCC(=O)Nc4ccc(C)cc4C)n3C)CC2)cc1 [Compound 12j, 1-(4-toluenesulfonyl)-4-{3-[N-(2,4-dimethylphenyl)-2-ethanamoylthio]-4-methyl-4H-1,2,4-triazol-5-yl} piperidine] | 72.25 ± 1.85% | 365.9 ± 1.42 µM | 23.54 ± 0.85% | 88.36 ± 0.79% | 94.63 ± 0.57 µM | 73.52 ± 1.65% | 37.62 ± 0.87% | excellent activity | – | 167.2 ± 1.34 µM | – | –
11 | Cc1ccc(S(=O)(=O)N2CCC(c3nnc(SCC(=O)Nc4cc(C)ccc4C)n3C)CC2)cc1 [Compound 12k, 1-(4-toluenesulfonyl)-4-{3-[N-(2,5-dimethylphenyl)-2-ethanamoylthio]-4-methyl-4H-1,2,4-triazol-5-yl} piperidine] | 71.16 ± 1.64% | 385.6 ± 1.32 µM | 29.45 ± 0.72% | 65.27 ± 0.74% | 212.9 ± 0.59 µM | 76.15 ± 1.52% | 49.23 ± 0.94% | – | – | 165.4 ± 1.27 µM | – | –
